Results on 1 compound are retold here after paper PMC5764337 (PLoS ONE, 2018).

Some targets named below: A/PR8-I222V virus NA (Influenza A virus (H3N2), UniProt V5P6L4, I222V); A/PR8-S331G virus NA (Influenza A virus (H3N2), UniProt A0A193ACB1, S331G); A/PR8-S331R virus NA (Influenza A virus (H3N2), UniProt A0A193ACB1, S331R); B/YAM-D342S virus NA (Influenza B virus, UniProt Q90021, D342S); B/YAM-A395T virus NA (Influenza B virus, UniProt C0LT34, A395T); B/YAM-A395D virus NA (Influenza B virus, UniProt C0LT34, A395D); B/YAM-A395V virus NA (Influenza B virus, UniProt A0A1W5M8K9, A395V).

Holding throughout (format): biochemical
Setting [1] is: read-out: NA enzyme inhibition assay (mean IC50 ± SD).

For the compound `CCC(CC)[C@H](NC(C)=O)[C@@H]1[C@H](O)[C@@H](C(=O)O)C[C@H]1N=C(N)N` [Peramivir, peramivir], the results for the “fold increase in IC50 over A/PR8-WT” value on A/PR8-I222V virus NA, on A/PR8-S331G virus NA and at A/PR8-S331R virus NA were 0.1 ± 0.01 (1) fold, 0.3 ± 0.3 (3) fold and 0.2 ± 0.06 (2) fold, respectively. In addition, the IC50 – broadly, the concentration that gives 50% inhibition – on A/PR8-I222V virus NA (setting [1]) is 0.1 nM; at A/PR8-S331G virus NA (setting [1]), 0.3 nM; on A/PR8-S331R virus NA (setting [1]), 0.2 nM; at B/YAM-D342S virus NA (setting [1]) it was 0.4 nM; on B/YAM-A395T virus NA (setting [1]) it was 0.6 nM; at B/YAM-A395D virus NA (setting [1]) it was 0.5 nM. For the same compound, the IC50 at B/YAM-A395V virus NA (setting [1]) was determined as 0.8 nM. The “fold increase in IC50 over B/BR/60/08” value on B/YAM-D342S virus NA is reported as 0.4 ± 0.12 (0.8) fold; on B/YAM-A395T virus NA, 0.6 ± 0.08 (1.2) fold; on B/YAM-A395D virus NA, 0.5 ± 0.36 (1) fold; at B/YAM-A395V virus NA it was 0.8 ± 0.12 (1.6) fold.
